Experimental data from ChEMBL document CHEMBL3991601, “The target landscape of clinical kinase drugs” (Science, 2017).
Calls of active or inactive are those of the source.

Key:
[1] = target: T1, Serine/threonine-protein kinase Nek9 (Homo sapiens, UniProt Q8TD19)
T1 sequence (Q8TD19 whole entry): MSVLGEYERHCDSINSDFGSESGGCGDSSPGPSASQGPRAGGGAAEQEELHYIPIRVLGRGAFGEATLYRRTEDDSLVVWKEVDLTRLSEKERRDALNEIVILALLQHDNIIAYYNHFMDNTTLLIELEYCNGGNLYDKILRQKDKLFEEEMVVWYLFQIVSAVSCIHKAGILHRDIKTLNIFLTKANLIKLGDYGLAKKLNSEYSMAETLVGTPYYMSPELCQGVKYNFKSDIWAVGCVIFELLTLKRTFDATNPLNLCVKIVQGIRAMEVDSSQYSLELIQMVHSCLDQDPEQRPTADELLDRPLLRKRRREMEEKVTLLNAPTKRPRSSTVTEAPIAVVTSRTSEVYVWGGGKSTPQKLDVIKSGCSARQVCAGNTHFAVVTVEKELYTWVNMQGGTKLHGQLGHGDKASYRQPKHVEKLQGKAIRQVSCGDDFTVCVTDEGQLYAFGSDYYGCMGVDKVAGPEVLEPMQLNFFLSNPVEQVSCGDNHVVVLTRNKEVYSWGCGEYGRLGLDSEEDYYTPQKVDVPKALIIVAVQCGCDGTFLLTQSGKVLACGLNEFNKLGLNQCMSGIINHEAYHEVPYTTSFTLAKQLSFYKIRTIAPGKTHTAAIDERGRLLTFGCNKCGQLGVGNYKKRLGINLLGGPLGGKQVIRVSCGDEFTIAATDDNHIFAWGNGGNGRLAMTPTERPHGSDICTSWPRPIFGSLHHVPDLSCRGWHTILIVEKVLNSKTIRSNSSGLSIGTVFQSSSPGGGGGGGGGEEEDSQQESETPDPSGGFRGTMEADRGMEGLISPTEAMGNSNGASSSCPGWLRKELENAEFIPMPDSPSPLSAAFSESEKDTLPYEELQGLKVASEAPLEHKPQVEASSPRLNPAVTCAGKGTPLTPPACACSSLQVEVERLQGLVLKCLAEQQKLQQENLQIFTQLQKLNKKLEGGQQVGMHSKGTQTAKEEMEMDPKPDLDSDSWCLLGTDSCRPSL

[2] = target: Guanine nucleotide-binding protein G(i) subunit alpha-2 (Homo sapiens, UniProt P04899)
Actin-related protein 2 = Actin-related protein 2 (Homo sapiens, UniProt P61160)
[3] = target: T2, Succinate--CoA ligase [ADP-forming] subunit beta, mitochondrial (Homo sapiens, UniProt Q9P2R7)
T2 sequence (Q9P2R7 whole entry): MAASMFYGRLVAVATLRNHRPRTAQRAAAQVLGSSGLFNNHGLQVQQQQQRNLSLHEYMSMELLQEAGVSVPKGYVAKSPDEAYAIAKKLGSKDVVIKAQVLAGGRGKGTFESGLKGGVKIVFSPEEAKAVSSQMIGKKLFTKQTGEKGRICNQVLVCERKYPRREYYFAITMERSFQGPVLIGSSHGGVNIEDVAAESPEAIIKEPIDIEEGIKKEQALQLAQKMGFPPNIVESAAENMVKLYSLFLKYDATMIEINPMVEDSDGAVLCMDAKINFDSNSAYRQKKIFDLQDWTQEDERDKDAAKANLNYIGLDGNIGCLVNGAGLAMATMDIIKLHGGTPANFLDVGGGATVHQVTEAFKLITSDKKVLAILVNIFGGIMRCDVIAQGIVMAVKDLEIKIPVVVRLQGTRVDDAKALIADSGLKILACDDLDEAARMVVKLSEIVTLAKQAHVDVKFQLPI

Obg-like ATPase 1 = Obg-like ATPase 1 (Homo sapiens, UniProt Q9NTK5)
LIM domain kinase 2 = LIM domain kinase 2 (Homo sapiens, UniProt P53671)
[4] = target: T3, Adenine phosphoribosyltransferase (Homo sapiens, UniProt P07741)
T3 sequence (P07741 whole entry): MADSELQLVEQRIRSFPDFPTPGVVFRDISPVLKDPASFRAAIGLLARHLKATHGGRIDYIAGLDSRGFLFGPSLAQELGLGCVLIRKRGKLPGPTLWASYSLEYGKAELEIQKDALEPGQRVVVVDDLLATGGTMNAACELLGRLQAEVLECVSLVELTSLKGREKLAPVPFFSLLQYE

[5] = target: T4, EKC/KEOPS complex subunit TP53RK (Homo sapiens, UniProt Q96S44)
T4 sequence (Q96S44 whole entry): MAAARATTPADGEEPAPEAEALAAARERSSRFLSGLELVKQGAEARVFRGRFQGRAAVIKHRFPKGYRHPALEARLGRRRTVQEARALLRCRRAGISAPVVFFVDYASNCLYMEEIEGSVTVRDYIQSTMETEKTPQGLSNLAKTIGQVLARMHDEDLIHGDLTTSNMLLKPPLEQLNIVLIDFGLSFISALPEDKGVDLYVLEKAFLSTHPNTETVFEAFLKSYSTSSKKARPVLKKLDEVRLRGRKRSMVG

[6] = target: Citron Rho-interacting kinase (Homo sapiens, UniProt O14578)
[7] = target: DnaJ homolog subfamily A member 1 (Homo sapiens, UniProt P31689)
Ephrin type-A receptor 2 = Ephrin type-A receptor 2 (Homo sapiens, UniProt P29317)
Also: in the data inactive means no Kd found up to 30 µM.

Sequence of Obg-like ATPase 1 (Q9NTK5 whole entry, looked up, the tested form may be a part): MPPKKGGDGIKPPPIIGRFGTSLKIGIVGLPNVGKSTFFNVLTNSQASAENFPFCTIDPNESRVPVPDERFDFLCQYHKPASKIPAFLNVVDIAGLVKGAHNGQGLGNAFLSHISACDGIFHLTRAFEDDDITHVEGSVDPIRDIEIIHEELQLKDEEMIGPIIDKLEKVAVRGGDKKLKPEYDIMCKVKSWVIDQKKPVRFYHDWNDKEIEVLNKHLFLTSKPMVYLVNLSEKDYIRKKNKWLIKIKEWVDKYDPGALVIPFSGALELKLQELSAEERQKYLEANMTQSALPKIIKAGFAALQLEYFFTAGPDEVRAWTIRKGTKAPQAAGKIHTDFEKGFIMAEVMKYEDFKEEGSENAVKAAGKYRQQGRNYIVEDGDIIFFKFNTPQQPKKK
Sequence of DnaJ homolog subfamily A member 1 (P31689 whole entry): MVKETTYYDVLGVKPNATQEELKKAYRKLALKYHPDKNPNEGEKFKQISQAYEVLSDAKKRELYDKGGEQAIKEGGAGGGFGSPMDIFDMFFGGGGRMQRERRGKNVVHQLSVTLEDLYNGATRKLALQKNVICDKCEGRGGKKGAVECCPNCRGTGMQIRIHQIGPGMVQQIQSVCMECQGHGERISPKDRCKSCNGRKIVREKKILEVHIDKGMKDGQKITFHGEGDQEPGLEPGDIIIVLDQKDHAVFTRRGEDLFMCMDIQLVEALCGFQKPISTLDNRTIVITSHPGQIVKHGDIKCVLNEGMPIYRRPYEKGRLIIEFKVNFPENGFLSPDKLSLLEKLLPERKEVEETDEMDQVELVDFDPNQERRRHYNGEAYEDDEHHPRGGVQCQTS
Sequence of LIM domain kinase 2 (P53671 whole entry, the tested form may be a part): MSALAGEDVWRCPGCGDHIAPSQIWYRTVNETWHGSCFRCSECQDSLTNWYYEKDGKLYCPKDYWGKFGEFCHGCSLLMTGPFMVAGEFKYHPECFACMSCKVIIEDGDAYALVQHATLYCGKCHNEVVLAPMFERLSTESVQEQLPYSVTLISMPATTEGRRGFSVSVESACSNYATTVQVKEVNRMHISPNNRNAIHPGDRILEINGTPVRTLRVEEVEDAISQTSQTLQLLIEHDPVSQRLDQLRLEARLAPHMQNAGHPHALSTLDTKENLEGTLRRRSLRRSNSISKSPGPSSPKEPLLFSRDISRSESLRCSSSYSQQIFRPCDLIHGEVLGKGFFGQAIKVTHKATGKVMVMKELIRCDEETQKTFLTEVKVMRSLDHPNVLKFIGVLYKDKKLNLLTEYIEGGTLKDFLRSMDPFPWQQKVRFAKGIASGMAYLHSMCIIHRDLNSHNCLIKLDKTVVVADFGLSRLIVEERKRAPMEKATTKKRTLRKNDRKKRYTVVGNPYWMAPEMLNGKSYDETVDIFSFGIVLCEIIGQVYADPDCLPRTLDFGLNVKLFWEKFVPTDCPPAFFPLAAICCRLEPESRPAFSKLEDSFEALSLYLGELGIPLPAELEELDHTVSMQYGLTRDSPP
Sequence of Guanine nucleotide-binding protein G(i) subunit alpha-2 (P04899 whole entry): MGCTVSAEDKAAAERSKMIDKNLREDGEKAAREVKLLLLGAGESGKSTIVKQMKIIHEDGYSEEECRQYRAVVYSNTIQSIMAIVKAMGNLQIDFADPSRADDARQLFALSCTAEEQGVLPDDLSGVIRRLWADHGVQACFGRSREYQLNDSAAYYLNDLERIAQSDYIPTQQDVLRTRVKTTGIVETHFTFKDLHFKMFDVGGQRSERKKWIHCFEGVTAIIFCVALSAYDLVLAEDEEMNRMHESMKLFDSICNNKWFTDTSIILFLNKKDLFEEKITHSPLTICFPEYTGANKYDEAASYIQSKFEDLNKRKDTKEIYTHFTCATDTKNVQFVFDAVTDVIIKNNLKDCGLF
Sequence of Citron Rho-interacting kinase (O14578 whole entry): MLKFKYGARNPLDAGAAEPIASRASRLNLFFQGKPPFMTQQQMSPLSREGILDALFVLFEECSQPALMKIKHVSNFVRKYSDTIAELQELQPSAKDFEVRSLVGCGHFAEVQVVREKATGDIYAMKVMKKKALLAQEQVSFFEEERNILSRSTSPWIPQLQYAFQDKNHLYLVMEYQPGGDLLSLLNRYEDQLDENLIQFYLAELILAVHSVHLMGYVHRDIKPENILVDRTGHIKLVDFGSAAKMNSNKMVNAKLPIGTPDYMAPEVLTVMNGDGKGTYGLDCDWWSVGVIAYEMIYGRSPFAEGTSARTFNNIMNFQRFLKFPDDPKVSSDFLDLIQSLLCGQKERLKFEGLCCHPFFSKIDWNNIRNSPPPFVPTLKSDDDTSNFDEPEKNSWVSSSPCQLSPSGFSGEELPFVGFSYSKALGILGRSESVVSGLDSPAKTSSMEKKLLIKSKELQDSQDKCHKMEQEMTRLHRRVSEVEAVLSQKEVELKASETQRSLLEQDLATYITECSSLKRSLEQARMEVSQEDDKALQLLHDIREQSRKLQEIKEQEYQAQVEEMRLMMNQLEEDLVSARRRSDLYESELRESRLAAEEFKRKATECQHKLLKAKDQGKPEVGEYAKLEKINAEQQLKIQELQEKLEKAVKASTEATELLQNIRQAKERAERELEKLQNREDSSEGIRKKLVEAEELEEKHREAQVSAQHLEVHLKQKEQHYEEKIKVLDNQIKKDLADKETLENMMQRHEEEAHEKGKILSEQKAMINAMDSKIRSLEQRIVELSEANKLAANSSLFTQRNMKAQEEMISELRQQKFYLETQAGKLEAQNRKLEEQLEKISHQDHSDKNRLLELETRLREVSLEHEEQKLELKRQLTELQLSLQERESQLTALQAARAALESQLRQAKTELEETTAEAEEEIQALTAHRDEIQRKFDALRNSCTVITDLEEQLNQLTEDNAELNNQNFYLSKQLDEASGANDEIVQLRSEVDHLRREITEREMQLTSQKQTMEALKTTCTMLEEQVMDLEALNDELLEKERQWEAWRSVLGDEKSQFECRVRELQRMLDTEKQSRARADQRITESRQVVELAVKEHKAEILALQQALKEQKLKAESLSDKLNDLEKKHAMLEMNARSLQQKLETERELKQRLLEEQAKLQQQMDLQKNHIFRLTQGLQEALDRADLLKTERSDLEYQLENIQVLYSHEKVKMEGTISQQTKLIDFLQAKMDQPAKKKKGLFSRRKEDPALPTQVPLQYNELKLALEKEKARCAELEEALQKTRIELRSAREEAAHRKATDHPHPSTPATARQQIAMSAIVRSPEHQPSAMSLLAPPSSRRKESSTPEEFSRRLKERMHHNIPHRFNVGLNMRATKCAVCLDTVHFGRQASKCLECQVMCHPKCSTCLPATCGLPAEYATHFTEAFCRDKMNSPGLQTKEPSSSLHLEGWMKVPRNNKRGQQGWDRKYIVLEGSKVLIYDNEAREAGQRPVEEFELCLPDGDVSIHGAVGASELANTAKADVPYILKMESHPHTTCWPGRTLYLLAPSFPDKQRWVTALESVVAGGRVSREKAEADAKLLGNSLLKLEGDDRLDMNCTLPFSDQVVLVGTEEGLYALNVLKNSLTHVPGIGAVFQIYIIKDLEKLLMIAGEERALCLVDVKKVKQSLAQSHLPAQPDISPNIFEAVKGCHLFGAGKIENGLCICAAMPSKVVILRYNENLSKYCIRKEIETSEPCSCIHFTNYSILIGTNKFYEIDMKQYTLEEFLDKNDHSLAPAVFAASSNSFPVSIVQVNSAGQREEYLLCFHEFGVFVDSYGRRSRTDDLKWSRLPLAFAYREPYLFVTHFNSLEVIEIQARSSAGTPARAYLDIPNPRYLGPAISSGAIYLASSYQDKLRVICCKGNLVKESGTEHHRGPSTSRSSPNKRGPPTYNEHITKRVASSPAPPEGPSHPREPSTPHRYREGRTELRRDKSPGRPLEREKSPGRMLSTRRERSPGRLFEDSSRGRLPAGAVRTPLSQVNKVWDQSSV
Sequence of Ephrin type-A receptor 2 (P29317 whole entry): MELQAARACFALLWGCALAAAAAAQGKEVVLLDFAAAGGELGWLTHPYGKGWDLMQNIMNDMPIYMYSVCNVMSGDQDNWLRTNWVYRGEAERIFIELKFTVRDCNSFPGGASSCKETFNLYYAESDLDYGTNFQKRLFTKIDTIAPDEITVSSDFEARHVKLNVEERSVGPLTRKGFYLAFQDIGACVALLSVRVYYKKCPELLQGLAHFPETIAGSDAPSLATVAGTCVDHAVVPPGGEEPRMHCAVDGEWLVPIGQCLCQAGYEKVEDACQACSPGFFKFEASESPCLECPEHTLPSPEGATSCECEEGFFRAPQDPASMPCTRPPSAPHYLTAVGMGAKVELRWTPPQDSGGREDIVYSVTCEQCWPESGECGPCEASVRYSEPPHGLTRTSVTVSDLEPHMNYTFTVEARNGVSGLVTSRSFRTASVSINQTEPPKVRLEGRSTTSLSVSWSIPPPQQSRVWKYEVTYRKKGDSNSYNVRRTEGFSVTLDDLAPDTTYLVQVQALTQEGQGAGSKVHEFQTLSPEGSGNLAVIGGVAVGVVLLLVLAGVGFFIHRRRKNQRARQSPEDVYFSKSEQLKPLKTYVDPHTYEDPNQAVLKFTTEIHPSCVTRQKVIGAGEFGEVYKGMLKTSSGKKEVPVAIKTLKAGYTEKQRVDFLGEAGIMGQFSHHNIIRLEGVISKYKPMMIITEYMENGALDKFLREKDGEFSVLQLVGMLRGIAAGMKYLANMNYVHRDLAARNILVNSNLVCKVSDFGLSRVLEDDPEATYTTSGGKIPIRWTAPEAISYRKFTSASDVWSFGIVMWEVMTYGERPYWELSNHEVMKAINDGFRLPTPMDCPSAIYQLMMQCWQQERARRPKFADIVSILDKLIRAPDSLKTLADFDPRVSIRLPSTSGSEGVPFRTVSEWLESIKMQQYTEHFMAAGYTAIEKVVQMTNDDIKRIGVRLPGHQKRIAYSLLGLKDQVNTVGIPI

Structure (SMILES) | Kd [1] | Kd [2] | Kd (Actin-related protein 2) | Kd [3] | Kd (Obg-like ATPase 1) | Kd (LIM domain kinase 2) | Kd [4] | Kd [5] | Kd [6] | Kd [7] | Kd (Ephrin type-A receptor 2)
COc1cc(Nc2ncc3c(n2)-c2ccc(Cl)cc2C(c2c(F)cccc2OC)=NC3)ccc1C(=O)O [ALISERTIB] | > 30 µM (inactive) | 0.184 µM | > 30 µM (inactive) | > 30 µM (inactive) | > 30 µM (inactive) | > 30 µM (inactive) | > 30 µM (inactive) | > 30 µM (inactive) | – | – | –
Cc1csc(-c2nnc(Nc3ccc(Oc4ncccc4-c4ccnc(N)n4)cc3)c3ccccc23)c1 [AMG-900] | > 30 µM (inactive) | > 30 µM (inactive) | > 30 µM (inactive) | – | > 30 µM (inactive) | > 30 µM (inactive) | > 30 µM (inactive) | > 30 µM (inactive) | > 30 µM (inactive) | > 30 µM (inactive) | > 30 µM (inactive)
O=C(Nc1c[nH]nc1-c1nc2cc(CN3CCOCC3)ccc2[nH]1)NC1CC1 [AT-9283] | – | > 30 µM (inactive) | > 30 µM (inactive) | > 30 µM (inactive) | > 30 µM (inactive) | 4.43 µM (active) | > 30 µM (inactive) | > 30 µM (inactive) | > 30 µM (inactive) | > 30 µM (inactive) | –
C=CC(=O)Nc1cc2c(Nc3ccc(F)c(Cl)c3)ncnc2cc1C#CC(C)(C)N1CCN(C)CC1 [AV-412 FREE BASE] | > 30 µM (inactive) | > 30 µM (inactive) | > 30 µM (inactive) | > 30 µM (inactive) | > 30 µM (inactive) | > 30 µM (inactive) | – | > 30 µM (inactive) | > 30 µM (inactive) | > 30 µM (inactive) | > 30 µM (inactive)
CNC(=O)c1ccccc1Sc1ccc2c(/C=C/c3ccccn3)n[nH]c2c1 [AXITINIB] | – | > 30 µM (inactive) | > 30 µM (inactive) | > 30 µM (inactive) | > 30 µM (inactive) | – | > 30 µM (inactive) | > 30 µM (inactive) | – | > 30 µM (inactive) | –
NC(=O)Nc1cc(-c2cccc(F)c2)sc1C(=O)N[C@H]1CCCNC1 [AZD-7762] | > 30 µM (inactive) | > 30 µM (inactive) | > 30 µM (inactive) | – | > 30 µM (inactive) | > 30 µM (inactive) | > 30 µM (inactive) | > 30 µM (inactive) | > 30 µM (inactive) | > 30 µM (inactive) | > 30 µM (inactive)
COc1cc2ncnc(Oc3cccc(NC(=O)Nc4cc(C(C)(C)C(F)(F)F)on4)c3)c2cc1OC [CEP-32496] | > 30 µM (inactive) | > 30 µM (inactive) | > 30 µM (inactive) | > 30 µM (inactive) | > 30 µM (inactive) | > 30 µM (inactive) | > 30 µM (inactive) | > 30 µM (inactive) | > 30 µM (inactive) | > 30 µM (inactive) | –
C#Cc1cccc(Nc2ncnc3cc(OC)c(OCCCCCCC(=O)NO)cc23)c1 [CUDC-101] | > 30 µM (inactive) | > 30 µM (inactive) | > 30 µM (inactive) | – | > 30 µM (inactive) | > 30 µM (inactive) | > 30 µM (inactive) | > 30 µM (inactive) | > 30 µM (inactive) | > 30 µM (inactive) | > 30 µM (inactive)
CC(C)(C)c1nc(-c2cccc(NS(=O)(=O)c3c(F)cccc3F)c2F)c(-c2ccnc(N)n2)s1 [DABRAFENIB] | 0.053 µM (active) | > 30 µM (inactive) | > 30 µM (inactive) | – | > 30 µM (inactive) | 0.082 µM (active) | > 30 µM (inactive) | > 30 µM (inactive) | > 30 µM (inactive) | > 30 µM (inactive) | > 30 µM (inactive)
Cc1cccc(-c2nn3c(c2-c2ccnc4ccc(C(N)=O)cc24)CCC3)n1 [GALUNISERTIB] | > 30 µM (inactive) | > 30 µM (inactive) | > 30 µM (inactive) | > 30 µM (inactive) | > 30 µM (inactive) | > 30 µM (inactive) | – | > 30 µM (inactive) | > 30 µM (inactive) | > 30 µM (inactive) | > 30 µM (inactive)
C[C@@H](Oc1cc(-n2cnc3ccc(CN4CCN(C)CC4)cc32)sc1C(N)=O)c1ccccc1C(F)(F)F [GSK-461364] | – | > 30 µM (inactive) | > 30 µM (inactive) | > 30 µM (inactive) | > 30 µM (inactive) | – | > 30 µM (inactive) | > 30 µM (inactive) | – | > 30 µM (inactive) | –
COc1ccc(S(=O)(=O)N(C(C)=O)c2ccccc2/C=C/c2cc[n+]([O-])cc2)cc1 [HMN-214] | > 30 µM (inactive) | > 30 µM (inactive) | > 30 µM (inactive) | – | > 30 µM (inactive) | > 30 µM (inactive) | > 30 µM (inactive) | > 30 µM (inactive) | > 30 µM (inactive) | > 30 µM (inactive) | > 30 µM (inactive)
Cn1cc(-c2cnc3ccc4ccc(CS(=O)(=O)NCc5ccccn5)cc4c(=O)c3c2)cn1 [MK-8033] | > 30 µM (inactive) | > 30 µM (inactive) | > 30 µM (inactive) | > 30 µM (inactive) | > 30 µM (inactive) | > 30 µM (inactive) | – | > 30 µM (inactive) | > 30 µM (inactive) | > 30 µM (inactive) | > 30 µM (inactive)
Cc1cnc(NC(=O)Nc2cc(Br)c(C)cc2OC[C@@H]2CNCCO2)cn1 [RABUSERTIB] | > 30 µM (inactive) | > 30 µM (inactive) | > 30 µM (inactive) | – | > 30 µM (inactive) | > 30 µM (inactive) | > 30 µM (inactive) | > 30 µM (inactive) | > 30 µM (inactive) | > 30 µM (inactive) | > 30 µM (inactive)
O=C(NOCCO)c1cc(CN2OCCCC2=O)c(F)c(F)c1Nc1ccc(I)cc1F [RO-4987655] | – | > 30 µM (inactive) | > 30 µM (inactive) | > 30 µM (inactive) | > 30 µM (inactive) | – | > 30 µM (inactive) | > 30 µM (inactive) | – | > 30 µM (inactive) | –
Cn1ncc(Cl)c1-c1cc(C(=O)N[C@H](CN)Cc2ccc(F)c(F)c2)oc1Cl [UPROSERTIB] | > 30 µM (inactive) | > 30 µM (inactive) | – | > 30 µM (inactive) | > 30 µM (inactive) | > 30 µM (inactive) | – | > 30 µM (inactive) | > 30 µM (inactive) | > 30 µM (inactive) | > 30 µM (inactive)
CN1C/C=C/CCOc2cccc(c2)-c2ccnc(n2)Nc2cccc(c2)C1 [ZOTIRACICLIB] | > 30 µM (inactive) | > 30 µM (inactive) | > 30 µM (inactive) | > 30 µM (inactive) | – | > 30 µM (inactive) | > 30 µM (inactive) | > 30 µM (inactive) | > 30 µM (inactive) | > 30 µM (inactive) | > 30 µM (inactive)
